Assay results taken from US10494360B2, “Inhibitors of indoleamine 2,3-dioxygenase” (NETHERLANDS TRANSLATIONAL RESEARCH CENTER B.V., priority 2016, dated 2019).
Values joined by “and” are separate entries in the source; they are usually repeats but may differ in a detail not shown here. Equal entries are not always repeated.

Biological target: IDO1 (Homo sapiens, UniProt P14902)
Assay: Biochemical IDO1 assay (NFK GreenScreen)
Parameters: Recombinant full-length IDO1 (Seegers, N., et al.) and all other assay components were diluted in IDO1 reaction buffer; made in house
Conditions: for IC50: recombinant full-length IDO1 25 nM, L-tryptophan 100 μM, NFK Green detection, read-out: IC50, inhibitory potency on IDO1; for relative activity of separated isomers: less active / most active isomer of the pair, assay not given
Procedure: Inhibition of IDO1 activity can be measured by determining the enzymatic conversion of L-tryptophan into N-formylkynurenine (NFK) in a reaction mixture containing IDO1 and test compound. The formation of NFK can be detected directly by, for instance, high-performance liquid chromatography (HPLC) methods, or by intrinsic fluorescence.
Compounds were serially diluted in dimethylsulfoxide (DMSO) and finally in IDO1 reaction buffer, consisting of 50 mM NaH2PO4, pH7.0, supplemented with 0.05% Tween-20 (cat. No. P7949; Sigma Aldrich) and 1% glycerol. Recombinant full-length IDO1 (Seegers, N., et al.) and all other assay components were diluted in IDO1 reaction buffer. […] Subsequently, 10 μl of 0.4 mM of the substrate L-tryptophan was added, i.e., the final concentration of L-tryptophan was 100 μM. The DMSO concentration in the assay was 0.3%. […] Incubation was continued for 60 min at room temperature. Then, 10 μl of NFK Green™ (NTRC, Oss, The Netherlands) was added, the plate was sealed, and the reaction was developed for 3 hours at 37° C. To determine the production of N-formyl kynurenine (NFK), the seal was removed and fluorescence was read on an EnVision multimode reader (Perkin Elmer, Waltham, Mass., USA). IC50 were calculated using XLfit™ software (ID Business Solutions, Ltd., Surrey, U.K.).

Chain of IDO1 (P14902 whole entry, species assumed): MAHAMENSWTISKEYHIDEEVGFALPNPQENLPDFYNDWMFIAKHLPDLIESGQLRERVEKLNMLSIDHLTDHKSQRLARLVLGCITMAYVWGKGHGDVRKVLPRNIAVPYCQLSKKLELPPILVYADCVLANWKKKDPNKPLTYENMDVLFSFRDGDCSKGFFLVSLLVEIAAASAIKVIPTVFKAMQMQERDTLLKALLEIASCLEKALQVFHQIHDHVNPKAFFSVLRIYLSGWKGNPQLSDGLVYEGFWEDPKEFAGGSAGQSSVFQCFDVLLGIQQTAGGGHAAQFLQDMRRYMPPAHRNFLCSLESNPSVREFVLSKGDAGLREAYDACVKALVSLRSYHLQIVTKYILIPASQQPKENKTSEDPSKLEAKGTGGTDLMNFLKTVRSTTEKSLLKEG

Row | IC50 | relative activity of separated isomers | Structure (SMILES)
1 | ≤ 5 µM and 1 to 5 µM | – | CCOC(=O)NC[C@H]1CC[C@H](C(=O)N2CC(=O)N(O)C2c2cccc(Br)c2)CC1 (relative stereo) [Example 102, (Trans)-ethyl N-[[4-[2-(3-bromophenyl)-3-hydroxy-4-oxo-imidazolidine-1-carbonyl]cyclohexyl]-methyl]carbamate]
2 | ≤ 5 µM and 1 to 5 µM | – | C[C@@H]1C(=O)N(O)C(c2cccc(Br)c2)N1C(=O)c1ccccc1F (single isomer, unassigned) [Example 57]
3 | ≤ 1 µM | – | O=C1CN(C(=O)c2ccccc2)C(c2cccc(Br)c2)N1O (single isomer, unassigned) [Example 63a, 1-benzoyl-2-(3-bromophenyl)-3-hydroxy-imidazolidin-4-one]
4 | ≤ 5 µM and 1 to 5 µM | – | O=C1CN(C(=O)c2ccccc2)C(c2cccc(Br)c2)N1O (single isomer, unassigned) [Example 63b, 1-benzoyl-2-(3-bromophenyl)-3-hydroxy-imidazolidin-4-one]
5 | ≤ 5 µM and 1 to 5 µM | – | O=C1CN(C(=O)c2ccccc2)C(c2cccc(Br)c2)N1O (single isomer, unassigned) [Example 64, 1-benzoyl-2-(3-bromophenyl)-3-hydroxy-imidazolidin-4-one]
6 | – | less active isomer | C[C@@H](c1ccccc1)N1CC(=O)N(O)C1c1cccc(Br)c1 (single isomer, unassigned) [Example 139a]
7 | ≤ 1 µM | most active isomer | C[C@@H](c1ccccc1)N1CC(=O)N(O)C1c1cccc(I)c1 (single isomer, unassigned) [Example 140b]
8 | ≤ 1 µM | most active isomer | O=C1CN(C(=O)c2c(F)cccc2F)C(c2cccc(Br)c2)N1O (single isomer, unassigned) [Example 142b, 2-(3-bromophenyl)-1-(2,6-difluorobenzoyl)-3-hydroxy-imidazolidin-4-one]
9 | ≤ 5 µM and 1 to 5 µM | less active isomer | O=C1CN(C(=O)c2c(F)cccc2Cl)C(c2ccc(F)c(Br)c2)N1O (single isomer, unassigned) [Example 143a, 2-(3-bromo-4-fluoro-phenyl)-1-(2-chloro-6-fluoro-benzoyl)-3-hydroxy-imidazolidin-4-one]
10 | ≤ 1 µM | most active isomer | O=C1CN(C(=O)c2c(F)cccc2Cl)C(c2ccc(F)c(Br)c2)N1O (single isomer, unassigned) [Example 143b, 2-(3-bromo-4-fluoro-phenyl)-1-(2-chloro-6-fluoro-benzoyl)-3-hydroxy-imidazolidin-4-one]
11 | ≤ 1 µM | less active isomer | O=C1CN(C(=O)c2c(F)cc(C#CC3CC3)cc2F)C(c2cccc(Br)c2)N1O (single isomer, unassigned) [Example 144a, 2-(3-bromophenyl)-1-[4-(2-cyclopropylethynyl)-2,6-difluoro-benzoyl]-3-hydroxy-imidazolidin-4-one]
12 | ≤ 1 µM | most active isomer | O=C1CN(C(=O)c2c(F)cc(C#CC3CC3)cc2F)C(c2cccc(Br)c2)N1O (single isomer, unassigned) [Example 144b, 2-(3-bromophenyl)-1-[4-(2-cyclopropylethynyl)-2,6-difluoro-benzoyl]-3-hydroxy-imidazolidin-4-one]
13 | ≤ 1 µM | less active isomer | O=C1CN(Cc2c(F)cccc2F)C(c2cccc(Br)c2)N1O (single isomer, unassigned) [Example 145a, 2-(3-bromophenyl)-1-[(2,6-difluorophenyl)methyl]-3-hydroxy-imidazolidin-4-one]
14 | ≤ 1 µM | most active isomer | O=C1CN(Cc2c(F)cccc2F)C(c2cccc(Br)c2)N1O (single isomer, unassigned) [Example 145b, 2-(3-bromophenyl)-1-[(2,6-difluorophenyl)methyl]-3-hydroxy-imidazolidin-4-one]
15 | ≤ 1 µM | less active isomer | O=C1CN(Cc2ccccc2F)C(c2cccc(I)c2)N1O (single isomer, unassigned) [Example 146a, 1-[(2-fluorophenyl)methyl]-3-hydroxy-2-(3-iodophenyl)imidazolidin-4-one]
16 | ≤ 1 µM | most active isomer | O=C1CN(Cc2ccccc2F)C(c2cccc(I)c2)N1O (single isomer, unassigned) [Example 146b, 1-[(2-fluorophenyl)methyl]-3-hydroxy-2-(3-iodophenyl)imidazolidin-4-one]
17 | ≤ 1 µM | most active isomer | NS(=O)(=O)NCC#Cc1cc(F)c(C(=O)N2CC(=O)N(O)C2c2cccc(Br)c2)c(F)c1 (single isomer, unassigned) [Example 147b, 2-(3-bromophenyl)-1-[2,6-difluoro-4-[3-(sulfamoylamino)prop-1-ynyl]benzoyl]-3-hydroxy-4-oxo-imidazolidine]
18 | ≤ 5 µM and 1 to 5 µM | – | O=C1CN(C(=O)c2ccccc2)C(c2cccc(C(F)(F)F)c2)N1O (stereo not shown) [Example 1, 1-Benzoyl-3-hydroxy-2-[3-(trifluoromethyl)phenyl]imidazolidin-4-one]

Row | IC50 | relative activity of separated isomers | Structure (SMILES)
19 | ≤ 5 µM and 1 to 5 µM | – | O=C1CN(C(=O)c2ccccc2F)C(c2ccc(Cl)c(C(F)(F)F)c2)N1O (stereo not shown) [Example 8, 2-[4-Chloro-3-(trifluoromethyl)phenyl]-1-(2-fluorobenzoyl)-3-hydroxy-imidazolidin-4-one]
20 | ≤ 5 µM and 1 to 5 µM | – | O=C1CN(C(=O)c2c(F)cccc2Cl)C(c2cccc(Cl)c2)N1O (stereo not shown) [Example 14, 1-(2-Chloro-6-fluoro-benzoyl)-2-(3-chlorophenyl)-3-hydroxy-imidazolidin-4-one]
21 | ≤ 5 µM and 1 to 5 µM | – | O=C1CN(C(=O)c2ccc(Cl)cc2Cl)C(c2cccc(Br)c2)N1O (stereo not shown) [Example 16, 2-(3-Bromophenyl)-1-(2,4-dichlorobenzoyl)-3-hydroxy-imidazolidin-4-one]
22 | ≤ 5 µM and 1 to 5 µM | – | COc1ccc(C(=O)N2CC(=O)N(O)C2c2cccc(Br)c2)cc1 (stereo not shown) [Example 18, 2-(3-Bromophenyl)-3-hydroxy-1-(4-methoxybenzoyl)imidazolidin-4-one]
23 | ≤ 5 µM and 1 to 5 µM | – | Cc1ccccc1C(=O)N1CC(=O)N(O)C1c1cccc(Br)c1 (stereo not shown) [Example 20, 2-(3-Bromophenyl)-3-hydroxy-1-(2-methylbenzoyl)imidazolidin-4-one]
24 | ≤ 5 µM and 1 to 5 µM | – | O=C1CN(C(=O)C2CCC2)C(c2ccc(F)c(Br)c2)N1O (stereo not shown) [Example 23, 2-(3-Bromo-4-fluoro-phenyl)-1-(cyclobutanecarbonyl)-3-hydroxy-imidazolidin-4-one]
25 | ≤ 5 µM and 1 to 5 µM | – | O=C1CN(C(=O)c2ccccc2Br)C(c2cccc(Br)c2)N1O (stereo not shown) [Example 24, 1-(2-Bromobenzoyl)-2-(3-bromophenyl)-3-hydroxy-imidazolidin-4-one]
26 | ≤ 5 µM and 1 to 5 µM | – | O=C1CN(C(=O)c2ccccc2C(F)(F)F)C(c2cccc(Br)c2)N1O (stereo not shown) [Example 28, 2-(3-Bromophenyl)-3-hydroxy-1-[2-(trifluoromethyl)benzoyl]imidazolidin-4-one]
27 | ≤ 5 µM and 1 to 5 µM | – | O=C1CN(C(=O)c2ccc(F)cc2)C(c2cccc(Br)c2)N1O (stereo not shown) [Example 29, 2-(3-Bromophenyl)-1-(4-fluorobenzoyl)-3-hydroxy-imidazolidin-4-one]
28 | ≤ 5 µM and 1 to 5 µM | – | O=C1CN(C(=O)c2ccc(F)cc2Cl)C(c2cccc(Br)c2)N1O (stereo not shown) [Example 30, 2-(3-Bromophenyl)-1-(2-chloro-4-fluoro-benzoyl)-3-hydroxy-imidazolidin-4-one]
29 | ≤ 5 µM and 1 to 5 µM | – | O=C1CN(C(=O)c2cc(F)ccc2Cl)C(c2cccc(Br)c2)N1O (stereo not shown) [Example 31, 2-(3-Bromophenyl)-1-(2-chloro-5-fluoro-benzoyl)-3-hydroxy-imidazolidin-4-one]
30 | ≤ 1 µM | – | O=C1CN(C(=O)c2cccc(F)c2)C(c2cccc(Br)c2)N1O (stereo not shown) [Example 36, 2-(3-Bromophenyl)-1-(3-fluorobenzoyl)-3-hydroxy-imidazolidin-4-one]
31 | ≤ 1 µM | – | O=C1CN(C(=O)c2c(F)cccc2C(F)(F)F)C(c2cccc(Br)c2)N1O (stereo not shown) [Example 37, 2-(3-Bromophenyl)-1-[2-fluoro-6-(trifluoromethyl)benzoyl]-3-hydroxy-imidazolidin-4-one]
32 | ≤ 5 µM and 1 to 5 µM | – | O=C1CN(C(=O)c2ccc(C(F)(F)F)cc2F)C(c2cccc(Br)c2)N1O (stereo not shown) [Example 38, 2-(3-Bromophenyl)-1-[2-fluoro-4-(trifluoromethyl)benzoyl]-3-hydroxy-imidazolidin-4-one]
33 | ≤ 5 µM and 1 to 5 µM | – | O=C1CN(C(=O)c2ccc(F)cc2)C(c2ccc(F)c(Br)c2)N1O (stereo not shown) [Example 40, 2-(3-Bromo-4-fluoro-phenyl)-1-(4-fluorobenzoyl)-3-hydroxy-imidazolidin-4-one]
34 | ≤ 5 µM and 1 to 5 µM | – | COc1ccc(C(=O)N2CC(=O)N(O)C2c2ccc(F)c(Br)c2)cc1 (stereo not shown) [Example 47, 2-(3-Bromo-4-fluoro-phenyl)-3-hydroxy-1-(4-methoxybenzoyl)imidazolidin-4-one]
35 | ≤ 5 µM and 1 to 5 µM | – | O=C1CN(C(=O)c2c(Cl)cccc2Cl)C(c2ccc(F)c(Br)c2)N1O (stereo not shown) [Example 48, 2-(3-Bromo-4-fluoro-phenyl)-1-(2,6-dichlorobenzoyl)-3-hydroxy-imidazolidin-4-one]
